Experimental findings from the NIST ThermoML archive (doi:10.1016/j.tca.2015.02.001) are described below.

Numbers after ± are expanded uncertainties.

A short description of data set [1]: Molar enthalpy of transition or fusion. The conditions noted are these: Crystal; DSC.
For data set [2] the following is noted: Crystal; DTA.

For the compound `CCn1cc[n+](C)c1.[Br-]` [1-ethyl-3-methylimidazolium bromide], in data set [1], the “Molar enthalpy of transition or fusion” value worked out at 4.61 ± 0.359 kcal/mol. Moreover, in data set [2], the Triple point temperature is listed as 340.15 ± 2 K.
Regarding `CCn1cc[n+](C)c1.[Cl-]` [1-ethyl-3-methylimidazolium chloride], in data set [1], the “Molar enthalpy of transition or fusion” value amounted to 3.39 ± 0.335 kcal/mol. The Triple point temperature in data set [2] is on record as 359.15 ± 2 K.
As for `CCn1cc[n+](C)c1.[I-]` [1-ethyl-3-methylimidazolium iodide], the “Molar enthalpy of transition or fusion” value in data set [1] came out at 4.04 ± 0.311 kcal/mol. In addition, the Triple point temperature in data set [2] came to 347.15 ± 2 K.
